Experimental data from ChEMBL document CHEMBL4665746, “Viennamycins: Lipopeptides Produced by a Streptomyces sp” (J Nat Prod, 2020).
The source made the active and inactive calls.

Columns and labels:
[1] = tested on: Bacillus subtilis; experiment: Antimicrobial activity against Bacillus subtilis in presence of >= 5 mM Zn2+; type: functional, organism-based
[2] = tested on: Bacillus subtilis; experiment: Antimicrobial activity against Bacillus subtilis in presence of >= 5 mM Mg2+; type: functional, organism-based
[3] = tested on: Bacillus subtilis; experiment: Antimicrobial activity against Bacillus subtilis in presence of >= 5 mM Mn2+; type: functional, organism-based
[4] = tested on: Aspergillus niger; experiment: Antimicrobial activity against Aspergillus niger CBS 110271; type: functional, organism-based
[5] = tested on: Bacillus subtilis; experiment: Antimicrobial activity against Bacillus subtilis in presence of >= 5 mM Ca2+; type: functional, organism-based
[6] = tested on: Aspergillus niger; experiment: Antimicrobial activity against Aspergillus niger CBS 110271 in presence of >= 5 uM Ca2+; type: functional, organism-based
[7] = tested on: Fusarium graminearum; experiment: Antimicrobial activity against Fusarium graminearum CBS 112.30; type: functional, organism-based
[8] = tested on: Fusarium graminearum; experiment: Antimicrobial activity against Fusarium graminearum CBS 112.30 in presence of >= 5 uM Ca2+; type: functional, organism-based
[9] = tested on: Saccharomyces cerevisiae; experiment: Antimicrobial activity against Saccharomyces cerevisiae BY4742 in presence of >= 5 uM Ca2+; type: functional, organism-based
[10] = tested on: Saccharomyces cerevisiae; experiment: Antimicrobial activity against Saccharomyces cerevisiae BY4742; type: functional, organism-based
[11] = tested on: Acinetobacter baumannii; experiment: Antimicrobial activity against Acinetobacter baumannii 1710; type: functional, organism-based
[12] = tested on: Acinetobacter baumannii; experiment: Antimicrobial activity against Acinetobacter baumannii 1799; type: functional, organism-based
[13] = tested on: Acinetobacter baumannii; experiment: Antimicrobial activity against Acinetobacter baumannii 1710 in presence of >= 5 uM Ca2+; type: functional, organism-based
[14] = tested on: Acinetobacter baumannii; experiment: Antimicrobial activity against Acinetobacter baumannii 1799 in presence of >= 5 uM Ca2+; type: functional, organism-based
[15] = tested on: Acinetobacter baumannii; experiment: Antimicrobial activity against Acinetobacter baumannii MB5973; type: functional, organism-based
[16] = tested on: Streptomyces coelicolor; experiment: Antimicrobial activity against Streptomyces coelicolor A3 in presence of >= 5 uM Ca2+; type: functional, organism-based
[17] = tested on: Acinetobacter baumannii; experiment: Antimicrobial activity against Acinetobacter baumannii MB5973 in presence of >= 5 uM Ca2+; type: functional, organism-based
[18] = tested on: Streptomyces coelicolor; experiment: Antimicrobial activity against Streptomyces coelicolor A3; type: functional, organism-based
[19] = tested on: Streptococcus pneumoniae; experiment: Antimicrobial activity against Streptococcus pneumoniae ATCC 46619; type: functional, organism-based
[20] = tested on: Staphylococcus epidermidis; experiment: Antimicrobial activity against Staphylococcus epidermidis; type: functional, organism-based
[21] = tested on: Streptococcus pneumoniae; experiment: Antimicrobial activity against Streptococcus pneumoniae ATCC 46619 in presence of >= 5 uM Ca2+; type: functional, organism-based
[22] = tested on: Staphylococcus epidermidis; experiment: Antimicrobial activity against Staphylococcus epidermidis in presence of >= 5 uM Ca2+; type: functional, organism-based
[23] = tested on: Staphylococcus aureus; experiment: Antimicrobial activity against Staphylococcus aureus MB2865; type: functional, organism-based
[24] = tested on: Staphylococcus aureus; experiment: Antimicrobial activity against Staphylococcus aureus MB2865 in presence of >= 5 uM Ca2+; type: functional, organism-based
[25] = tested on: Staphylococcus aureus; experiment: Antimicrobial activity against methicillin-sensitive Staphylococcus aureus ATCC 29213; type: functional, organism-based
[26] = tested on: Staphylococcus aureus; experiment: Antimicrobial activity against Staphylococcus aureus 1415-10; type: functional, organism-based
[27] = tested on: Staphylococcus aureus; experiment: Antimicrobial activity against methicillin-sensitive Staphylococcus aureus ATCC 29213 in presence of >= 5 uM Ca2+; type: functional, organism-based
[28] = tested on: Staphylococcus aureus; experiment: Antimicrobial activity against Staphylococcus aureus 1415-10 in presence of >= 5 uM Ca2+; type: functional, organism-based
[29] = tested on: Staphylococcus aureus; experiment: Antimicrobial activity against methicillin-resistant Staphylococcus aureus MB5393; type: functional, organism-based
[30] = tested on: Staphylococcus aureus; experiment: Antimicrobial activity against methicillin-resistant Staphylococcus aureus MB5393 in presence of >= 5 uM Ca2+; type: functional, organism-based
[31] = tested on: MIA PaCa-2; experiment: Cytotoxicity against human MIA PaCa-2 cells assessed as reduction in cell viability; type: functional, cell-based
[32] = tested on: A2058; experiment: Cytotoxicity against human A2058 cells assessed as reduction in cell viability; type: functional, cell-based
[33] = tested on: A549; experiment: Cytotoxicity against human A549 cells assessed as reduction in cell viability; type: functional, cell-based
[34] = tested on: HepG2; experiment: Cytotoxicity against human HepG2 cells assessed as reduction in cell viability; type: functional, cell-based
[35] = tested on: MIA PaCa-2; experiment: Cytotoxicity against human MIA PaCa-2 cells assessed as reduction in cell viability in presence of >= 5 uM Ca2+; type: functional, cell-based
[36] = tested on: A2058; experiment: Cytotoxicity against human A2058 cells assessed as reduction in cell viability in presence of >= 5 uM Ca2+; type: functional, cell-based
[37] = tested on: A549; experiment: Cytotoxicity against human A549 cells assessed as reduction in cell viability in presence of >= 5 uM Ca2+; type: functional, cell-based
[38] = tested on: HepG2; experiment: Cytotoxicity against human HepG2 cells assessed as reduction in cell viability in presence of >= 5 uM Ca2+; type: functional, cell-based

Measured: Activity

CC[C@H](C)[C@H](NC(=O)[C@H](CC(N)=O)NC(=O)/C=C\C=C\CCC(C)C)C(=O)N[C@H](Cc1ccccc1)C(=O)N[C@H](CS(=O)(=O)O)C(=O)N[C@@H](CC(=O)O)C(=O)N[C@@H]1C(=O)N(C)[C@H](C(C)C)C(=O)NCC(=O)NCC(=O)N[C@H](CCC(=O)O)C(=O)N[C@@H](C)C(=O)N2CCC[C@H]2C(=O)O[C@@H]1C
inactive: all assays above

CC[C@H](C)[C@H](NC(=O)[C@H](CC(N)=O)NC(=O)/C=C\C=C\CCC(C)C)C(=O)N[C@H](Cc1ccccc1)C(=O)N[C@H](CC(=O)O)C(=O)N[C@@H](CC(=O)O)C(=O)N[C@@H]1C(=O)N(C)[C@H](C(C)C)C(=O)NCC(=O)NCC(=O)N[C@H](CCC(=O)O)C(=O)N[C@@H](C)C(=O)N2CCC[C@H]2C(=O)O[C@@H]1C
inactive: all assays above
